According to patent US20250163074A1, “CDK Inhibitors And Their Use As Pharmaceuticals” (Prelude Therapeutics Incorporated, priority 2020, published 2025):
Where two headings read alike, the source gives them in different places.

What was measured:
CDK6/Cyclin D1 = CDK6/Cyclin D1 (Homo sapiens (Human), UniProt Q00534); test: CDK6/CyclinD1 enzymatic activity assay (TR-FRET); assay type: biochemical; conditions: CDK6/Cyclin D1 1 nM, ATP 250 μM, read-out: CDK6_D1 IC50
Description: CDK6/CyclinD1 Enzymatic Activity Assay
(§1) The inhibitory activity of compounds was evaluated in vitro using TR-FRET assay with white 384-well low volume microplate (Greiner Bio-One). CDK6/Cyclin D1 catalyzed phosphorylation of peptide in the presence and absence of compounds was measured and used in IC50 determination. Recombinant protein complex CDK6/Cyclin D1, expressed from insect cell, was purchased from ProQinase. Testing compounds were dissolved in DMSO at 0.1 mM and tested in 9-dose IC50 mode. The reaction mixture was prepared by mixing CDK6/Cyclin D1 (1 nM final), ULight-4E-BP1 (100 nM final, Perkinelmer, TRF0128-D), and ATP (250 μM final) in assay buffer (20 mM of HEPES pH 7.4, 1 mM of EGTA, 0.05% BSA, 0.005% Tween 20, and 1 mM TCEP). The compound of interest in DMSO was added to each well in 3-fold serial dilution by dispenser (TECAN D300E). After 20 minutes preincubation at room temperature, 0.1 μL MgCl2 (10 mM final) was added to initiate the reaction. Following a 60 minutes incubation at 37° C., the reaction was stopped by addition of 2 μL of quenching buffer consisting of Lance detection buffer (Perkinelmer CR97-100C), 2 nM LANCE Ultra Europium-anti-P-4E-BP1 (Perkinelmer, TRF0216-D), 10 mM EDTA, and incubate at room temperature for additional 60 minutes in dark. The reaction signal was measured by Envision multimode plate reader (PerkinElmer, 2102-0010). IC50 values were determined by fitting the data to the standard 4 parameters with Hill Slope using GraphPad Prism software.

[1] = test system: MCF7 adenocarcinoma cell line; test: Cell proliferation studies in MCF7 cells (ATP-Lite); assay type: cell-based; conditions: 10 days incubation, cell viability by ATP-Lite luminescence, read-out: PROLIFERATION_CTG_MCF7 IC50
Description: Cell Proliferation Studies in MCF7 Cells
Cell proliferation studies were conducted in MCF7 adenocarcinoma cell line. Cells were maintained in DMEM (Corning, Catalog #: 10-013-CV) supplemented with 10% v/v FBS (Gibco, Catalog #: 26140-079), 1% v/v Penicillin Streptomycin (Gibco, Catalog #15140-122) Cells were seeded in 384-well plates at a density of 100 or 200 cells/well. Compounds dissolved in DMSO were plated in quadruplicate using a digital dispenser (D300E, Tecan) and tested on a 9-point 3-fold serial dilution. Cells were incubated for 10 days in a 37° C. active humidified incubator at 5% CO2. A media exchange and second compound addition were performed on day 5. Cell viability was measured using the ATP-Lite 1-Step Luminescence reagent (Perkin Elmer, Catalog #: 6016731) as per manufacturer's instructions. Luminescence signal was measured with a multimode plate reader (Envision 2105, Perkin Elmer). Raw data files were imported to Dotmatics Screening Ultra for IC50 analysis. Luminescence values were normalized to both background and DMSO controls to obtain a percentage of viable cells relative to DMSO vehicle control.

CDK4/Cyclin D1 = CDK4/Cyclin D1 (Homo sapiens (Human), UniProt P11802); test: CDK4/CyclinD1 enzymatic activity assay (TR-FRET); assay type: biochemical; conditions: CDK4/CyclinD1 1 nM, ATP 2 mM, read-out: CDK4_D1 IC50
CDK4/Cyclin D1, sequence (P11802 whole entry): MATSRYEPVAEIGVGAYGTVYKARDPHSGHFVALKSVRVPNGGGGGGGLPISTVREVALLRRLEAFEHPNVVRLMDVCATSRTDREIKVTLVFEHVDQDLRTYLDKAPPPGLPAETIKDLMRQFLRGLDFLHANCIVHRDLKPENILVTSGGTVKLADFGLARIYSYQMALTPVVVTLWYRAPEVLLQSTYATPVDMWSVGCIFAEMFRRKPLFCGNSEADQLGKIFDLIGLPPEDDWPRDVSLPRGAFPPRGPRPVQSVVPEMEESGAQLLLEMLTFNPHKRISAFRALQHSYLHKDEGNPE
CDK4/Cyclin D1, sequence (P24385 whole entry partner): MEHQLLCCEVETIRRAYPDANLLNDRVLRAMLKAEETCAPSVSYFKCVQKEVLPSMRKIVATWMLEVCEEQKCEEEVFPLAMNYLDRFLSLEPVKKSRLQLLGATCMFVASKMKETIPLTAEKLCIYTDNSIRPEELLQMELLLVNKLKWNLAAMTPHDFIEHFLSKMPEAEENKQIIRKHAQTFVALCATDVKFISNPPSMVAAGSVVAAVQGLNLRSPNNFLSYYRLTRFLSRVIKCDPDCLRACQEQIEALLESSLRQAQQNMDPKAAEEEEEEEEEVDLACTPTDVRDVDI
Description: CDK4/CyclinD1 Enzymatic Activity Assay
as §1, with “Bio-One). CDK4/Cyclin” for “Bio-One). CDK6/Cyclin”, “was measured.” for “was measured and used in”, “complex CDK4/Cyclin” for “complex CDK6/Cyclin”, “mixing CDK4/CyclinD1” for “mixing CDK6/Cyclin D1”, “ATP (2 mM” for “ATP (250 μM”, “temperature,” for “temperature, 0.1 μL”

CDK6/Cyclin D1, sequence (Q00534 whole entry): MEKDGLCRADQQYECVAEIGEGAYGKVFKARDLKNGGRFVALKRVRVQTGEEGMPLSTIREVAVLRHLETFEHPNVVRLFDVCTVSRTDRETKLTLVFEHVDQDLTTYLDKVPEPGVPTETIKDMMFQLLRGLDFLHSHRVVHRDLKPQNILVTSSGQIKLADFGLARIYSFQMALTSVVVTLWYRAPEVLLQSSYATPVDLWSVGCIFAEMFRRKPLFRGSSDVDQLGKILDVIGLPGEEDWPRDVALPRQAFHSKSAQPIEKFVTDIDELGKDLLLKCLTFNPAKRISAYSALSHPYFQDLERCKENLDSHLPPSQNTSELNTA
CDK6/Cyclin D1, sequence (P24385 whole entry partner): as the sequence (P24385 whole entry partner) above

| IC50 (CDK6/Cyclin D1) [nM] | IC50 ([1]; Homo sapiens, 240 h) [nM] | IC50 (CDK4/Cyclin D1) [nM] | IC50 [1] [nM] | Compound |
| --- | --- | --- | --- | --- |
| 20 to 200 | ≤ 20 | ≤ 20 |  | CN1CCC(c2ccc(Nc3ncc(F)c(-c4cc5c(s4)C4(CCCCC4)CN(C)C5=O)n3)nc2)CC1 [Example 5, 2′-(5-Fluoro-2-((5-(1-methylpiperidin-4-yl)pyridin-2-yl)amino)pyrimidin-4-yl)-5′-methyl-5′,6′-dihydro-4′H-spiro[cyclohexane-1,7′-thieno[3,2-c]pyridin]-4′-one] |
| ≤ 20 |  | ≤ 20 | 20 to 200 | CN1CCC(c2ccc(Nc3ncc(F)c(-c4cc5c(s4)C4(CC4)N(C)C5=O)n3)nc2)CC1 [Example 8] |
| ≤ 20 | 20 to 200 | ≤ 20 |  | CN1CCC(c2ccc(Nc3ncc(F)c(-c4sc5c(c4Cl)C(=O)N(C)C54CC4)n3)nc2)CC1 [Example 9, 3′-chloro-2′-(5-Fluoro-2-((5-(1-methylpiperidin-4-yl)pyridin-2-yl)amino)pyrimidin-4-yl)-5′-methylspiro[cyclopropane-1,6′-thieno[2,3-c]pyrrol]-4′(5′H)-one] |
| ≤ 20 | 20 to 200 | ≤ 20 |  | CN1CCC(c2ccc(Nc3ncc(F)c(-c4sc5c(c4C(F)(F)F)C(=O)N(C)C54CC4)n3)nc2)CC1 [Example 10, 2′-(5-Fluoro-2-((5-(1-methyl-piperidin-4-yl)pyridin-2-yl)amino)pyrimidin-4-yl)-5′-methyl-3′-(trifluoromethyl)spiro[cyclopropane-1,6′-thieno[2,3-c]pyrrol]-4′(5′H)-one] |
| ≤ 20 | 20 to 200 | ≤ 20 |  | CCN1CCN(Cc2ccc(Nc3ncc(F)c(-c4sc5c(c4C)C(=O)N(C)C54CC4)n3)nc2)CC1 [Example 13, 2′-(2-((5-((4-Ethylpiperazin-1-yl)methyl)pyridin-2-yl)amino)-5-fluoropyrimidin-4-yl)-3′,5′-dimethylspiro[cyclopropane-1,6′-thieno[2,3-c]pyrrol]-4′(5′H)-one] |
| ≤ 20 | 20 to 200 | ≤ 20 |  | CCN1CC2(C1)CN(c1ccc(Nc3ncc(F)c(-c4cc5c(s4)C4(CCCC4)N(CC)C5=O)n3)nc1)C2 [Example 21, 5′-Ethyl-2′-(2-((5-(6-ethyl-2,6-diazaspiro[3.3]heptan-2-yl)pyridin-2-yl)amino)-5-fluoropyrimidin-4-yl)spiro[cyclopentane-1,6′-thieno[2,3-c]pyrrol]-4′(5′H)-one] |
| 20 to 200 | 20 to 200 | ≤ 20 |  | CCN1C(=O)c2cc(-c3nc(Nc4ccc(C5CCN(C)CC5)cn4)ncc3F)sc2C12CCCC2 [Example 22, 5′-Ethyl-2′-(5-fluoro-2-((5-(1-methylpiperidin-4-yl)pyridin-2-yl)amino)pyrimidin-4-yl)spiro[cyclopentane-1,6′-thieno[2,3-c]pyrrol]-4′(5′H)-one] |
| ≤ 20 | 20 to 200 | ≤ 20 |  | CCN1CCC(c2ccc(Nc3ncc(F)c(-c4cc5c(s4)C4(CCCC4)N(C)C5=O)n3)nc2)CC1 [Example 23, 2′-(2-((5-(1-Ethylpiperidin-4-yl)pyridin-2-yl)amino)-5-fluoropyrimidin-4-yl)-5′-methylspiro[cyclopentane-1,6′-thieno[2,3-c]pyrrol]-4′(5′H)-one] |
| ≤ 20 | ≤ 20 | ≤ 20 |  | CN1CCC(c2ccc(Nc3ncc(F)c(-c4sc5c(c4C(F)(F)F)C(=O)N(C)C54CCCC4)n3)nc2)CC1 [Example 26, 2′-(5-Fluoro-2-((5-(1-methylpiperidin-4-yl)pyridin-2-yl)amino)pyrimidin-4-yl)-5′-methyl-3′-(trifluoromethyl)spiro[cyclopentane-1,6′-thieno[2,3-c]pyrrol]-4′(5′H)-one] |
| ≤ 20 | ≤ 20 | ≤ 20 |  | CN1CCC(c2ccc(Nc3ncc(F)c(-c4sc5c(c4Cl)C(=O)N(C)C54CCCC4)n3)nc2)CC1 [Example 27, 3′-Chloro-2′-(5-fluoro-2-((5-(1-methylpiperidin-4-yl)pyridin-2-yl)amino)pyrimidin-4-yl)-5′-methylspiro[cyclopentane-1,6′-thieno[2,3-c]pyrrol]-4′(5′H)-one] |
| ≤ 20 | 20 to 200 | ≤ 20 |  | Cc1c(-c2nc(Nc3ccc(C4CCCN(C)C4)cn3)ncc2F)sc2c1C(=O)N(C)CC21CC1 (stereo not shown) [Example 30, 2′-(5-Fluoro-2-((5-(1-methyl-piperidin-3-yl)pyridin-2-yl)amino)pyrimidin-4-yl)-3′,5′-dimethyl-5′,6′-dihydro-4′H-spiro[cyclopropane-1,7′-thieno[3,2-c]pyridin]-4′-one] |
| ≤ 20 | 20 to 200 | ≤ 20 |  | Cc1c(-c2nc(Nc3ccc(C4CCN(C5CCOC5)CC4)cn3)ncc2F)sc2c1C(=O)N(C)CC21CC1 (stereo not shown) [Example 32, 2′-(5-Fluoro-2-((5-(1-(tetrahydrofuran-3-yl)piperidin-4-yl)pyridin-2-yl)amino)pyrimidin-4-yl)-3′,5′-dimethyl-5′,6′-dihydro-4′H-spiro[cyclopropane-1,7′-thieno[3,2-c]pyridin]-4′-one] |
| ≤ 20 | ≤ 20 | ≤ 20 |  | Cc1c(-c2nc(Nc3ccc(N4CC5(C4)CN(C(C)C)C5)cn3)ncc2F)sc2c1C(=O)N(C)CC21CC1 [Example 34, 2′-(5-Fluoro-2-((5-(6-isopropyl-2,6-diazaspiro[3.3]heptan-2-yl)pyridin-2-yl)amino)pyrimidin-4-yl)-3′,5′-dimethyl-5′,6′-dihydro-4′H-spiro[cyclopropane-1,7′-thieno[3,2-c]pyridin]-4′-one] |
| ≤ 20 | 20 to 200 | ≤ 20 |  | Cc1c(-c2nc(Nc3ccc(N4CCC5(CC4)CN(C)C5)cn3)ncc2F)sc2c1C(=O)N(C)CC21CC1 [Example 36, 2′-(5-Fluoro-2-((5-(2-methyl-2,7-diazaspiro[3.5]nonan-7-yl)pyridin-2-yl)amino)pyrimidin-4-yl)-3′,5′-dimethyl-5′,6′-dihydro-4′H-spiro[cyclopropane-1,7′-thieno[3,2-c]pyridin]-4′-one] |
|  | 20 to 200 | ≤ 20 |  | CN1CC2(CCCC2)c2sc(-c3nc(Nc4ccc(N5CCN6CCC5CC6)cn4)ncc3F)cc2C1=O [Example 64, 2-[2-[[5-(1,4-Diazabicyclo[3.2.2]nonan-4-yl)pyridin-2-yl]amino]-5-fluoropyrimidin-4-yl]-5-methylspiro[6H-thieno[3,2-c]pyridine-7,1′-cyclopentane]-4-one] |
|  | 20 to 200 | ≤ 20 |  | Cc1c(-c2nc(Nc3ccc(C4CCN(C(C)C)CC4)nn3)ncc2F)sc2c1C(=O)N(C)CC21CC1 [Example 83, 2′-(5-Fluoro-2-((6-(1-isopropylpiperidin-4-yl)pyridazin-3-yl)amino)pyrimidin-4-yl)-3′,5′-dimethyl-5′,6′-dihydro-4′H-spiro[cyclopropane-1,7′-thieno[3,2-c]pyridin]-4′-one] |
